Data as given in patent publication US12584173B2, “Methods for disease treatment and drug discovery” (The Scripps Research Institute, priority 2018, dated 2026).

Assays:
[1] = biological target: CFTR (Homo sapiens, UniProt P13569, DEL508-508); conditions: cited from earlier work
[2] = system: NPC1; experiment: NPC1 variant trafficking index (TrIdx, endo H resistance) in NPC1 null cell lines; format: cell-based, human
Excerpt: (§1) NPC1 is composed of multiple domains that harbor the different variants contributing to disease. Given the heterozygous allelic composition of most NPC1 primary fibroblasts that compromise interpretation of the impact of a specific allele on disease progression, we silenced NPC1 expression with shRNA to generate stable null cell lines. These null cell lines were transiently transfected with a sparse collection of plasmids that each harbor one of 48 distinct NPC1 disease-associated variants in NPC1 distributed among the various NPC1 domains. […] We binned this sparse collection of variants into 4 functional classes (Cass I-IV). Class I variants lack polypeptide expression in response to non-sense and/or splicing (truncation) mutations (null), Class II missense variants are largely ER retained (defined as <0.2 TrIdx), Class III missense variants show an intermediate level of trafficking (defined as 0.2 to 0.5 TrIdx) and Class IV missense variants have a level of trafficking >0.5 TrIdx indicating significant export from the ER. […] The impact of cholesterol (ChoI) storage in the LE/LY for each of these variants was measured using automated high content screening image analysis based on filipin staining.
(§2) Each of the 48 NPC1 variants was examined for the impact of SAHA on both TrIdx and ChoI in the LE/LY. […] The effects of HDACi were NPC1-dependent as restoration of ChoI homeostasis by SAHA was not observed in fibroblasts lacking NPC1 and in null cell-lines lacking NPC1.

[3] = system: NPC1; conditions: cited from earlier work
[4] = system: NPC1; experiment: cholesterol storage in LE/LY by filipin staining, high content image analysis; format: cell-based, human
Excerpt: as §1, §2

CFTR, sequence (P13569 with tags, fused parts or gaps DEL508-508): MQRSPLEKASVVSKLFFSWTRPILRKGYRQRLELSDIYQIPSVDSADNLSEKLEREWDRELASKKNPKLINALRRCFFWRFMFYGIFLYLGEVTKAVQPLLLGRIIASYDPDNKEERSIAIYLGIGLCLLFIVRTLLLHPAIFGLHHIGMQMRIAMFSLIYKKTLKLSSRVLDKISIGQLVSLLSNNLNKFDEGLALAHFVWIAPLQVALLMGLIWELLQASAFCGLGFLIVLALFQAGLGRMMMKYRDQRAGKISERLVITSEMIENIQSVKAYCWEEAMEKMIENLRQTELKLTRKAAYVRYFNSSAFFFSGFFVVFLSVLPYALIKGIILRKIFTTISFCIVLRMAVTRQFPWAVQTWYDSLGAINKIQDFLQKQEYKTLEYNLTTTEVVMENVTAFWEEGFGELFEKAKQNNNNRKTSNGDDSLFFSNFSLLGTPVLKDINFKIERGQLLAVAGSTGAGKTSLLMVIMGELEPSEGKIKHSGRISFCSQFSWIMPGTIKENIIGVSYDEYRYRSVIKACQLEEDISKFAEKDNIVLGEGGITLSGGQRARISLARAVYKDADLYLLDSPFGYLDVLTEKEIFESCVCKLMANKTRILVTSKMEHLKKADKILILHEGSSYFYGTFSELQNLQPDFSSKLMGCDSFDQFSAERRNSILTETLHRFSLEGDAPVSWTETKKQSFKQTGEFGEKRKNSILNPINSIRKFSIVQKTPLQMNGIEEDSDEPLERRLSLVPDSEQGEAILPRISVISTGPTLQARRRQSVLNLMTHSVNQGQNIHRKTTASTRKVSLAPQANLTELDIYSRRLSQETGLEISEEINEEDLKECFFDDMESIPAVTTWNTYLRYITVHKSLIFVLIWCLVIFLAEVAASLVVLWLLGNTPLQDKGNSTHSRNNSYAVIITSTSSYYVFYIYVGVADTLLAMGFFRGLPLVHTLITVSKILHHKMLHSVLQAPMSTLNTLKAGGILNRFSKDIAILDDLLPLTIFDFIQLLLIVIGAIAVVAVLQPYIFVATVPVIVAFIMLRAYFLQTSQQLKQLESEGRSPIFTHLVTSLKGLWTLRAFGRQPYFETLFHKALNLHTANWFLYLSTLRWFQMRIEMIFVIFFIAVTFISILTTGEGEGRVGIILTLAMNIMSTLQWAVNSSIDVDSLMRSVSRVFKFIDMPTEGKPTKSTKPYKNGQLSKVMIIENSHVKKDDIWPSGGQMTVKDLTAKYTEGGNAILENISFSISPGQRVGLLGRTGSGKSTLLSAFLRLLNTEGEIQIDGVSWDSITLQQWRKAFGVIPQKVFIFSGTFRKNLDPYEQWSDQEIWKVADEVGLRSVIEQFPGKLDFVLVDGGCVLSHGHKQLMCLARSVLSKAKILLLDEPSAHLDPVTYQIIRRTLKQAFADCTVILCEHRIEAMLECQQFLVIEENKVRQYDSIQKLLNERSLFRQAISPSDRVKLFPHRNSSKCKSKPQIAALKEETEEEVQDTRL

CC(C)(C)c1cc(C(C)(C)C)c(NC(=O)c2c[nH]c3ccccc3c2=O)cc1O [Ivacaftor]
effect on export or function of F508del [1]: no effect

O=C(CCCCCCC(=O)Nc1ccccc1)NO [SAHA, Vorinostat]
TrIdx ([2]; NPC1 H510P): inability of SAHA to improve | TrIdx ([2]; NPC1 P532L): improved | TrIdx ([2]; NPC1 R518Q): large improvement | TrIdx class after treatment ([2]; majority of NPC1 variants with a TrIdx<0.2): at least a Class III TrIdx | trafficking ([2]; variants involved in the predicted path of cholesterol flow, TM region): not changed | correction of the I1061T phenotype (protein stabilized for export to LE/LY, improved cholesterol homeostasis) [3]: correct the I1061T phenotype | ChoI ([4]; NPC1 H510P): lack of significant correction | ChoI ([4]; NPC1 P532L): improved | cholesterol homeostasis ([4]; NPC1 R518Q): does not significantly improve | response to treatment ([4]; NPC1 V950M, S954L, P1007A and T1036M (CLD5, late age of neurological onset cluster)): highly responsive | restoration of ChoI homeostasis ([4]; fibroblasts lacking NPC1 and null cell-lines lacking NPC1): not observed | cholesterol homeostasis of NPC1 variants ([4]; in all domains): significantly restored | cholesterol storage state ([4]; variants along the predicted cholesterol flow path (R1077Q, Y1088C, W1145R, Y634C, P691S, L1191F)): improved to level of WT or even better than WT
